Assay results taken from patent US20250188164A1, “PHARMACEUTICAL COMPOSITION COMPRISING ANTI-CTLA4-ANTI-PD-1 BISPECIFIC ANTIBODY AND CHIAURANIB” (AKESO PHARMACEUTICALS, INC., priority 2022, published 2025).

System: mixed culture of DC, PBMC and A375 cells
Assay: Lymphocyte-tumor cell mixed reaction system, cytokine secretion by ELISA
Type: cell-based, human
Details: A375 cells treated with 15 μM chiauranib for 48 h, BiAb004(hG1TM) 300 nM
Experimental: Freshly isolated PBMCs (from healthy donors) were adhered to the wall overnight. Mononuclear cells were collected. GM-CSF (2000 U/mL, from peprotech, Cat. No. 300-03) and IL-4 (2000 U/mL from peprotech, Cat. No. 200-04) were added. Induction was performed after 3 days of culture. For the iDC group, half of the medium was exchanged, and GM-CSF (2000 U/mL) and IL4 (2000 U/mL) were added. For the mDC group, half of the medium was exchanged, and GM-CSF (2000 U/mL), IFN-γ (50 ng/mL, from Sino Biological, Cat. No. 11725-HNAS-100) and LPS (100 ng/mL, from SIGMA, Cat. No. L6529) were added. The cells were cultured in an incubator for 2 days and frozen for later use.
A375 cells (purchased from ATCC, agency: Zhongyuan Ltd., Cat. No. CRL-1619) were digested conventionally, collected by centrifugation, and plated on 10 cm dishes at 2×10^6 cells/dish. Chiauranib (from Chipscreen Biosciences, Lot No. 210604) was added to one of the dishes to a final concentration of 15 μM, and a blank control group was set. The mixture was incubated in an incubator at 37° C. and 5% CO2 for 48 h (medium: DMEM+10% FBS). […] The cells were counted and plated as per DC:PBMC=1:10 in 96-well flat-bottom plates. […] The amounts of secretion of IFN-γ (purchased from Dakewe, Cat. No. 1110202) and IL-2 (purchased from Dakewe, Cat. No. 1110202) were measured by an ELISA kit.

## COc1ccc2c(Oc3ccc4c(C(=O)Nc5ccccc5N)cccc4c3)ccnc2c1 [chiauranib, N-(2-aminophenyl)-6-(7-methoxyquinoline-4-oxy)-1-naphthamide]
Supernatants day 3 and day 5, FIG. 17
  secretion of IFN-γ: effectively promote
Supernatants day 3 and day 5, FIG. 18
  secretion of IL-2: effectively promote
